This is an account of results in patent US9474775B2, “Compound, extract isolated from antrodia camphorate, and method using the same” (priority 2013, dated 2016).

In brackets after ≈: the same amount, converted by molar mass.

Common to all, as to type: cell-based
The subject of assay [1] is A549 cell line (lung cancer). Description: MTT cell viability assay, A549 cell line (lung cancer). The settings on record: Homo sapiens, 48 hours, read-out: half maximal inhibitory concentration (IC50), A549. As for the experimental part: (§1) Cell proliferation of A549 cell line (lung cancer), CT26 cell line (colon cancer), DU145 cell line (prostate cancer), HepG2 cell line (liver cancer), PC3 cell line (prostate cancer), MDA-MB-231 cell line (breast cancer) and MCF-7 cell line (breast cancer) was assessed by MTT cell viability assay.
(§2) Above cell lines were cultured in determined medium for 24 hours. Proliferative cells were washed with PBS solution, treated with trpsin-EDTA (1×), centrifuged at 1,200 rpm for 5 min, precipitated the cells and discarded supernatant. The cells were resuspended with 10 ml of fresh medium, and then loaded to 96-well plate. While the assay initiated, 0.01˜200 μg/ml of Antrodia camphorata extract was added in each well, and the plate was incubated for 48 hours, at 37° C., 5% CO2. Each wall was added with 2.5 mg/ml MTT reagent in the dark. After 4 hours of reaction, 100 μl lysis buffer were added to each wall to terminate the reaction. […] The experiment data was represented by means±SD. All data was statistically analyzed by paired-t test, and a P-value less than 0.05 was considered significant.
For orientation: Formazan colour is commonly taken as a measure of viable cells.

The test system of assay [2] is CT26 cell line (colon cancer). Description: MTT cell viability assay, CT26 cell line (colon cancer). The settings on record: Mus musculus, 48 hours, read-out: half maximal inhibitory concentration (IC50), CT26. Here is the method:
as §1, §2

The subject of assay [3] is DU145 cell line (prostate cancer). As to the kind of experiment: MTT cell viability assay, DU145 cell line (prostate cancer). As to conditions: Homo sapiens; DU-145, MTT, 48 hours; read-out: half maximal inhibitory concentration (IC50), DU-145. As for the experimental part: as §1, §2
In assay [4] the test system is HepG2 cell line (liver cancer). As to the kind of experiment: MTT cell viability assay, HepG2 cell line (liver cancer). The settings on record: Homo sapiens, 48 hours, read-out: half maximal inhibitory concentration (IC50), HepG2. Here is the method: as §1, §2
Assay [5] relates to PC3 cell line (prostate cancer). As to the kind of experiment: MTT cell viability assay, PC3 cell line (prostate cancer). As to conditions: Homo sapiens, PC-3, 48 hours, read-out: half maximal inhibitory concentration (IC50), PC3. As for the experimental part: as §1, §2
Assay [6] has as its system MDA-MB-231 cell line (breast cancer). Description: MTT cell viability assay, MDA-MB-231 cell line (breast cancer). The settings on record: Homo sapiens; MDA-MB-231, MTT, 48 hours; read-out: half maximal inhibitory concentration (IC50), MDA-MB-231. Here is the method:
as §1, §2

Assay [7] relates to MCF-7 cell line (breast cancer). Description: MTT cell viability assay, MCF-7 cell line (breast cancer). As to conditions: Homo sapiens, MCF7; MCF-7, MTT, 48 hours; read-out: half maximal inhibitory concentration (IC50), MCF-7. As for the experimental part: as §1, §2
Assay [8] can be described thus: Solvent (DMSO) cytotoxicity, cell death. The settings on record: DMSO content of diluted drug; cell line not stated. As for the experimental part:
The symbols used in tables respectively represent: 0-25% cell viability: +/−; 25˜50% cell viability: +; 50˜75% cell viability: ++, 75˜100% cell viability: +++, >100% cell viability: ++++. […] In this experiment, when the drug concentration was diluted to […], DMSO concentration was 0.5%.

For the compound `COC1=C(OC)[C@H](O)[C@H](C/C=C(\C)CC/C=C(\C)C/C=C/C(C)(C)O)[C@@H](C)C1=O` [Antrocamol LT3, (4R,5R,6R)-4-hydroxy-5-[(2E,6E,9E)-11-hydroxy-3,7,11-trimethyldodeca-2,6,9-trienyl]-2,3-dimethoxy-6-methylcyclohex-2-enone], the IC50 in assay [1] was determined as 0.014 ± 0.002 µg/mL (≈ 0.0344 µM); in assay [2] it was 0.011 ± 0.001 µg/mL (≈ 0.0271 µM); in assay [3] it was 0.07 ± 0.001 µg/mL (≈ 0.172 µM); in assay [4], 0.004 ± 0.001 µg/mL (≈ 0.00984 µM); in assay [5], 0.009 ± 0.001 µg/mL (≈ 0.0221 µM); in assay [6], 1.01 ± 0.06 µg/mL (≈ 2.48 µM). The IC50 in assay [7] turned out to be 0.1 ± 0.01 µg/mL (≈ 0.246 µM).

Turning to `C[S+](C)[O-]` [DMSO], in assay [8], the “IC50 value of the solvent (50% cell death)” value came to 2.34%.
